What was measured:
Details in all cases: 72 h
Vero E6 [1] = assay: cell viability relative to DMSO; higher = less toxic
Caco-2 [2] = assay: as above
HepG2 [3] = assay: as above
Calu-3 [4] = assay: as above
U2OS [5] = assay: as above
Vero E6 [6] = assay: drug sensitivity score (DSS) for viability; higher = more toxic; extreme values may be limits of the assay
Caco-2 [7] = assay: as above
HepG2 [8] = assay: as above
Calu-3 [9] = assay: as above
U2OS [10] = assay: as above
Vero E6 [11] = assay: relative viability EC50 (midpoint between 100% and the lowest measured viability); higher = less toxic
Caco-2 [12] = assay: as above
HepG2 [13] = assay: as above
Calu-3 [14] = assay: as above
U2OS [15] = assay: as above

Row | Compound | cell viability (Vero E6 [1]; 1 nM) | cell viability (Vero E6 [1]; 10 nM) | cell viability (Vero E6 [1]; 100 nM) | cell viability (Vero E6 [1]; 1000 nM) | cell viability (Vero E6 [1]; 10000 nM) | cell viability (Caco-2 [2]; 1 nM) | cell viability (Caco-2 [2]; 10 nM) | cell viability (Caco-2 [2]; 100 nM) | cell viability (Caco-2 [2]; 1000 nM) | cell viability (Caco-2 [2]; 10000 nM) | cell viability (HepG2 [3]; 1 nM) | cell viability (HepG2 [3]; 10 nM) | cell viability (HepG2 [3]; 100 nM) | cell viability (HepG2 [3]; 1000 nM) | cell viability (HepG2 [3]; 10000 nM) | cell viability (Calu-3 [4]; 1 nM) | cell viability (Calu-3 [4]; 10 nM) | cell viability (Calu-3 [4]; 100 nM) | cell viability (Calu-3 [4]; 1000 nM) | cell viability (Calu-3 [4]; 10000 nM) | cell viability (U2OS [5]; 1 nM) | cell viability (U2OS [5]; 10 nM) | cell viability (U2OS [5]; 100 nM) | cell viability (U2OS [5]; 1000 nM) | cell viability (U2OS [5]; 10000 nM) | drug sensitivity score (Vero E6 [6]) | drug sensitivity score (Caco-2 [7]) | drug sensitivity score (HepG2 [8]) | drug sensitivity score (Calu-3 [9]) | drug sensitivity score (U2OS [10]) | relative viability EC50 (Vero E6 [11]) | relative viability EC50 (Caco-2 [12]) | relative viability EC50 (HepG2 [13]) | relative viability EC50 (Calu-3 [14]) | relative viability EC50 (U2OS [15])
1 | O=c1[nH]c2cc(C(F)(F)F)c(N3CCOCC3)cc2n(CP(=O)(O)O)c1=O | 105% | 99.8% | 99.6% | 102% | 101% | 102% | 92.8% | 98.5% | 106% | 93.9% | 95.4% | 104% | 107% | 90.5% | 99.1% | 108% | 106% | 98% | 99.7% | 109% | 97.3% | 102% | 103% | 104% | 99.7% | 0 | 0 | 0 | 0 | 0 | > 10 µM | > 10 µM | > 10 µM | > 10 µM | > 10 µM
2 | CC(C)OC(=O)N1CCC(Oc2ncnc3c2cnn3-c2ccc(S(C)(=O)=O)cc2F)CC1 [APD668] | 90.5% | 95.2% | 100% | 95.7% | 105% | 106% | 98.4% | 93.6% | 96.1% | 89.1% | 103% | 102% | 96.2% | 98.6% | 77.1% | 106% | 107% | 102% | 108% | 92.7% | 99.4% | 101% | 97.4% | 106% | 97.5% | 0 | 0 | 1 | 0 | 0 | > 10 µM | > 10 µM | > 10 µM | > 10 µM | > 10 µM
3 | CC(C)OC(=O)C1=CN(C(=O)c2ccc(F)c(F)c2)CC(C)(C)c2c1[nH]c1ccccc21 | 101% | 97.6% | 95.4% | 98.7% | 98.9% | 84.5% | 99.7% | 86.1% | 95.2% | 89.3% | 95.3% | 102% | 97.3% | 92.1% | 112% | 104% | 91.3% | 103% | 96.5% | 97.8% | 98.3% | 99.6% | 95.9% | 100% | 96.3% | 0 | 0 | 0 | 0 | 0 | > 10 µM | > 10 µM | > 10 µM | > 10 µM | > 10 µM
4 | CC1(C)C(/C=C/C=C/C=C/C=C2\N(CCCCS(=O)(=O)O)c3ccc4ccccc4c3C2(C)C)=[N+](CCCCS(=O)(=O)[O-])c2ccc3ccccc3c21 [indocyanine-green] | 96.5% | 99.4% | 102% | 101% | 94.1% | 98.2% | 87.1% | 105% | 94.8% | 86.9% | 93.1% | 89.4% | 106% | 94.9% | 94.5% | 98.6% | 108% | 91.6% | 96% | 88.3% | 105% | 101% | 97.4% | 99.1% | 95.4% | 0 | 0.4 | 0 | 0 | 0 | > 10 µM | > 10 µM | > 10 µM | > 10 µM | > 10 µM
5 | Cc1ccc(Nc2ncc3c(n2)N(C)C(=O)N(c2cc(NC(=O)c4cccc(C(F)(F)F)c4)ccc2C)C3)cn1 [GNF-7] | 95.2% | 103% | 91% | 12% | 11.3% | 93.8% | 92.1% | 89.3% | 19.3% | 18.7% | 92.5% | 101% | 97.7% | 16.8% | 0.3% | 112% | 103% | 87.5% | 20.8% | 23.7% | 105% | 97.5% | 78.8% | 13.9% | 32.9% | 17.5 | 16.6 | 15.4 | 16.6 | 19 | 0.235 µM | 0.21 µM | 0.501 µM | 0.195 µM | 0.156 µM
6 | C[C@]12CCC(=O)C=C1CC[C@@H]1[C@@H]2C(=O)C[C@]2(C)C(=O)CC[C@@H]12 [adrenosterone] | 95.3% | 100% | 99.3% | 97.5% | 97.1% | 107% | 96% | 98% | 95% | 97.5% | 98.6% | 98.8% | 94.5% | 97.7% | 97.5% | 106% | 92.5% | 100% | 98.1% | 96.4% | 103% | 95% | 98.2% | 97.4% | 99.1% | 0 | 0 | 0 | 0 | 0 | > 10 µM | > 10 µM | > 10 µM | > 10 µM | > 10 µM

— the supplement of paper PMC13380429
